Experimental findings from ChEMBL document CHEMBL1201862, “PubChem BioAssay data set” (2004) are described below.

Among the test systems are COLO 205; BT-549; UACC-257; PC-3; TK-10; SNB-19; SK-MEL-5; Malme-3M; SNB-75; OVCAR-3; OVCAR-4; SK-OV-3; HCT-15; MDA-MB-435; DU-145; SF-539; K562; NCI-H522; UACC-62; NCI/ADR-RES.
What all share (experiment): NCI tumour cell line growth inhibition, 48 h

Counter-ions that a name gives are not always drawn.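 Compound exposure: 48 hours, 5 concentrations, 96-well plates. The concentration for 50% growth inhibition is given as GI50.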 Active and inactive are the calls of the source. Cut-off read from the data, not from the text of the source: active = GI50 up to about 1.1 µM and inactive = higher.

With `Oc1ccc(Cn2c(-c3ccc(O)cc3)nc3ccccc32)cc1`, the GI50 in the experiment on COLO 205, in the experiment with BT-549, with UACC-257, in the experiment on PC-3, in the experiment on TK-10 and with SNB-19 was > 100 µM (inactive) each time. The GI50 in the experiment with SK-MEL-5, in the experiment with Malme-3M, with SNB-75, with OVCAR-3, in the experiment with OVCAR-4 and in the experiment on SK-OV-3 was > 100 µM (inactive) throughout. Also, the GI50 in the experiment with HCT-15 was greater than 100 µM; in the experiment with MDA-MB-435 it was > 100 µM (inactive); in the experiment on DU-145 it was > 100 µM (inactive); with SF-539, > 100 µM (inactive); in the experiment on K562 it was > 100 µM (inactive); with NCI-H522 it was > 100 µM (inactive). Besides, the GI50 with UACC-62 and in the experiment with NCI/ADR-RES was > 100 µM (inactive) throughout.
Turning to `CC(C)CC(NC(=O)C(COc1ccc([N+](=O)[O-])cc1)Cc1ccccc1)C(=O)Nc1ccccc1` (stereo not given), the GI50 in the experiment with COLO 205 was 9.04 µM (inactive); with BT-549 it was 10.9 µM (inactive); in the experiment on UACC-257 it was 25.7 µM (inactive); in the experiment on PC-3, 38.7 µM (inactive); with TK-10, 11.5 µM (inactive); with SNB-19 it was 7.76 µM (inactive). For the same compound, the GI50 was 7.83 µM (inactive) in the experiment with SK-MEL-5; 5.02 µM (inactive) in the experiment with Malme-3M; 2.38 µM (inactive) in the experiment on SNB-75; 41.1 µM (inactive) in the experiment with OVCAR-3; 2.35 µM (inactive) in the experiment on OVCAR-4; 13.8 µM (inactive) with SK-OV-3. Further, the GI50 in the experiment on HCT-15 is 13.3 µM; in the experiment with MDA-MB-435, 14.1 µM (inactive); in the experiment on DU-145 it was > 100 µM (inactive); in the experiment with SF-539 it was 6.68 µM (inactive); in the experiment with K562, 19.2 µM (inactive); with NCI-H522, 12.5 µM (inactive). The figures for the GI50 with UACC-62 and in the experiment with NCI/ADR-RES were 11.1 µM (inactive) and 12.7 µM (inactive), respectively.
Regarding `COc1ccccc1N1C(=O)CC(=O)N(C(=O)CCCCCCCCC(=O)N2C(=O)CC(=O)N(c3ccccc3OC)C2=S)C1=S`, the GI50 was > 100 µM (inactive) with COLO 205; 55.3 µM (inactive) in the experiment with BT-549; > 100 µM (inactive) in the experiment with UACC-257; 62.5 µM (inactive) with PC-3; > 100 µM (inactive) in the experiment with TK-10; 74.1 µM (inactive) in the experiment with SNB-19. The GI50 in the experiment on SK-MEL-5 is 52 µM (inactive); in the experiment with Malme-3M, > 100 µM (inactive); with SNB-75, > 100 µM (inactive); in the experiment with OVCAR-3 it was 55.2 µM (inactive); in the experiment with OVCAR-4, 73.1 µM (inactive); with SK-OV-3, > 100 µM (inactive). Also, the GI50 is 96.4 µM in the experiment with HCT-15; > 100 µM (inactive) in the experiment with MDA-MB-435; > 100 µM (inactive) with DU-145; > 100 µM (inactive) in the experiment with SF-539; 38.1 µM (inactive) in the experiment with K562; 47.3 µM (inactive) in the experiment on NCI-H522. Also, the GI50 is 41.8 µM (inactive) with UACC-62 and 91.6 µM (inactive) with NCI/ADR-RES.
In the case of `Cc1ccccc1C(=O)C#Cc1cn(C2CC(O)C(CO)O2)c(=O)[nH]c1=O` (stereo not given), the GI50 with COLO 205, in the experiment with BT-549, in the experiment on UACC-257, in the experiment with PC-3, in the experiment on TK-10 and with SNB-19 was > 100 µM (inactive) each time. Also, the GI50 was > 100 µM (inactive) in the experiment on SK-MEL-5; 18.3 µM (inactive) with Malme-3M; > 100 µM (inactive) in the experiment with SNB-75; > 100 µM (inactive) in the experiment with OVCAR-3; > 100 µM (inactive) in the experiment on OVCAR-4; > 100 µM (inactive) with SK-OV-3. The GI50 in the experiment with HCT-15 is greater than 100 µM; in the experiment with MDA-MB-435, > 100 µM (inactive); in the experiment on DU-145, > 100 µM (inactive); in the experiment with SF-539 it was > 100 µM (inactive); with K562 it was 57 µM (inactive); in the experiment with NCI-H522, 14.7 µM (inactive). For the same compound, the GI50 in the experiment with UACC-62 and in the experiment with NCI/ADR-RES was > 100 µM (inactive) in each case.
As to `O=C1C(Br)=CC2(C=C1Br)CCNC1=C2C2=NCCc3c[nH]c(c32)C1=O`, the GI50 in the experiment on COLO 205 is 0.0149 µM (active); in the experiment on BT-549 it was 0.212 µM (active); in the experiment on UACC-257, 0.101 µM (active); in the experiment with PC-3, 0.307 µM (active); with TK-10 it was 0.204 µM (active); with SNB-19, 1.41 µM (inactive). For the same compound, the GI50 in the experiment with SK-MEL-5 was 0.126 µM (active); in the experiment on Malme-3M, 0.0415 µM (active); in the experiment with SNB-75 it was 0.973 µM (active); in the experiment with OVCAR-3, 0.0249 µM (active); with OVCAR-4 it was 0.0794 µM (active); with SK-OV-3, 1.9 µM (inactive). The GI50 in the experiment with HCT-15 is 0.0605 µM; with MDA-MB-435, 0.102 µM (active); in the experiment on DU-145, 0.811 µM (active); in the experiment with SF-539 it was 0.246 µM (active); in the experiment with K562 it was 0.028 µM (active); in the experiment on NCI-H522 it was 0.0176 µM (active). The GI50 with UACC-62 is 0.0933 µM (active); in the experiment on NCI/ADR-RES, 0.164 µM (active).
Consider `C/C(=N\NS(=O)(=O)c1ccc(C)cc1)C(CN(C)C)C(c1ccccc1)c1c(O)c2ccccc2oc1=O` (stereo not given), for which the GI50 in the experiment on COLO 205 is > 95.3 µM (inactive); in the experiment with BT-549, > 100 µM (inactive); with UACC-257 it was > 100 µM (inactive); in the experiment on PC-3, > 100 µM (inactive); in the experiment with TK-10, > 100 µM (inactive); with SNB-19 it was > 100 µM (inactive). For the same compound, the GI50 was > 100 µM (inactive) in the experiment with SK-MEL-5; > 100 µM (inactive) in the experiment with Malme-3M; > 51.9 µM (inactive) in the experiment on SNB-75; > 100 µM (inactive) in the experiment with OVCAR-3; > 100 µM (inactive) in the experiment with OVCAR-4; 99.1 µM (inactive) in the experiment with SK-OV-3. Besides, the GI50 was greater than 100 µM with HCT-15; > 100 µM (inactive) in the experiment with MDA-MB-435; > 100 µM (inactive) with DU-145; > 100 µM (inactive) in the experiment with SF-539; > 84.5 µM (inactive) in the experiment on K562; > 100 µM (inactive) in the experiment on NCI-H522. The GI50 was > 86.3 µM (inactive) in the experiment with UACC-62 and > 100 µM (inactive) in the experiment on NCI/ADR-RES.
Turning to `CCOC(=O)CNC1=NNS(=O)(=O)c2ccccc21`, the GI50 with COLO 205, in the experiment on BT-549, in the experiment on UACC-257, with PC-3, in the experiment on TK-10 and in the experiment with SNB-19 was > 100 µM (inactive) throughout. Also, the GI50 in the experiment on SK-MEL-5, in the experiment with Malme-3M, in the experiment with SNB-75, in the experiment with OVCAR-3, with OVCAR-4 and in the experiment on SK-OV-3 was > 100 µM (inactive) throughout. Further, the GI50 in the experiment with HCT-15 was greater than 100 µM; in the experiment with MDA-MB-435, > 100 µM (inactive); in the experiment with DU-145, > 100 µM (inactive); in the experiment with SF-539 it was > 100 µM (inactive); with K562, > 100 µM (inactive); in the experiment with NCI-H522, > 100 µM (inactive). Also, the GI50 in the experiment on UACC-62 and with NCI/ADR-RES was > 100 µM (inactive) throughout.
As to `O=S1(=O)OCc2ccccc21`, the GI50 with COLO 205, in the experiment on BT-549, in the experiment on UACC-257, in the experiment on PC-3, with TK-10 and in the experiment with SNB-19 was > 100 µM (inactive) throughout. Besides, the GI50 was > 100 µM (inactive) with SK-MEL-5; > 100 µM (inactive) in the experiment with Malme-3M; 42.8 µM (inactive) in the experiment on SNB-75; 32.5 µM (inactive) in the experiment with OVCAR-3; 51.1 µM (inactive) in the experiment with OVCAR-4; > 100 µM (inactive) in the experiment with SK-OV-3. In addition, the GI50 in the experiment on HCT-15 was 59.3 µM; in the experiment on MDA-MB-435, 58.1 µM (inactive); with DU-145, > 100 µM (inactive); in the experiment on SF-539, 25.2 µM (inactive); in the experiment with K562, > 100 µM (inactive); in the experiment on NCI-H522, 79.8 µM (inactive). Moreover, the GI50 in the experiment on UACC-62 is 80.2 µM (inactive); with NCI/ADR-RES, > 100 µM (inactive).
For `CC(=O)N(C)c1ccc(Nc2cc(C)nc3ccc4nc[nH]c4c23)cc1` [ACODAZOLE HYDROCHLORIDE], the GI50 is 4.38 µM (inactive) in the experiment on COLO 205; 10 µM (inactive) with BT-549; 12.7 µM (inactive) in the experiment with UACC-257; 5.09 µM (inactive) with PC-3; 13.6 µM (inactive) with TK-10; 10.2 µM (inactive) in the experiment on SNB-19. The GI50 with SK-MEL-5 is 7.28 µM (inactive); with Malme-3M it was 7.64 µM (inactive); in the experiment with SNB-75 it was 9.33 µM (inactive); with OVCAR-3, 8.63 µM (inactive); with OVCAR-4, 11.7 µM (inactive); with SK-OV-3 it was 10.5 µM (inactive). Moreover, the GI50 with HCT-15 was 23 µM; in the experiment with MDA-MB-435 it was 8.51 µM (inactive); in the experiment with DU-145, 5.81 µM (inactive); with SF-539, 7.38 µM (inactive); with K562 it was 8.07 µM (inactive); with NCI-H522, 7.38 µM (inactive). In addition, the GI50 in the experiment with UACC-62 is 10.2 µM (inactive); with NCI/ADR-RES, 156 µM (inactive).
With `CC1=COC2=C(C)C(=O)C(=O)c3c(C)ccc1c32` [MANSONONE F], the GI50 was 2.55 µM (inactive) with COLO 205; 14.2 µM (inactive) with BT-549; 7.23 µM (inactive) in the experiment with UACC-257; 2.49 µM (inactive) with PC-3; 42.1 µM (inactive) with TK-10; 4.07 µM (inactive) with SNB-19. For the same compound, the GI50 in the experiment with SK-MEL-5 is 0.859 µM (active); in the experiment on Malme-3M, 1.69 µM (inactive); in the experiment on SNB-75, 9.06 µM (inactive); in the experiment with OVCAR-3, 0.349 µM (active); with OVCAR-4, 2.77 µM (inactive); in the experiment with SK-OV-3, 15.8 µM (inactive). In addition, the GI50 was 2.43 µM in the experiment with HCT-15; 1.9 µM (inactive) in the experiment on MDA-MB-435; 6.21 µM (inactive) with DU-145; 3.21 µM (inactive) with SF-539; 3.66 µM (inactive) in the experiment with K562; 2.17 µM (inactive) in the experiment on NCI-H522. For the same compound, the values for the GI50 in the experiment with UACC-62 and in the experiment on NCI/ADR-RES were 3.24 µM (inactive) and 2.1 µM (inactive), respectively.
